Data from patent publication US12091708B2, “Compositions and methods targeting the Th2 pathway for the treatment of asthma” (THE CHILDREN'S HOSPITAL OF PHILADELPHIA, priority 2017, dated 2024).

Molecular target: T1, CRTH2 receptor (Homo sapiens, UniProt Q9Y5Y4)
T1 construct: CD3+ cells were isolated from the rested PBMCs using Human T-Expander CD3/CD28 Dynabeads; endogenous in cells; host or cells: primary human CD3+/CD28+ T cells purified from PBMCs of healthy volunteers, expanded 10 days under TH2-skewing conditions
T1 sequence (Q9Y5Y4 1-395): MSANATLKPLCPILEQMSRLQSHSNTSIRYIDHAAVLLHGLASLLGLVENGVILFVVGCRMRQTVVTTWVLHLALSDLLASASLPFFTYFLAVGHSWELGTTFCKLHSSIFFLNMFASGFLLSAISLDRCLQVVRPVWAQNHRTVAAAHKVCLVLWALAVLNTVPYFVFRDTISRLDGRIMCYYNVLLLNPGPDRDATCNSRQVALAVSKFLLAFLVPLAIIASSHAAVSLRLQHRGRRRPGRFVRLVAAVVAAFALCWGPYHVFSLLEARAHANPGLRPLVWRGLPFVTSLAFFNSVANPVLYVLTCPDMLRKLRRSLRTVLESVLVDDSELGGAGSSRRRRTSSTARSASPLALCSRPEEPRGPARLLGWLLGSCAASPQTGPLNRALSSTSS
Assay: CRTH2 assay: IL-13 expression (qPCR) in expanded, TH2-skewed T cells stimulated with PGD2 with or without CD3/CD28
Type: cell-based
Details: T cells from healthy human volunteers, increasing concentrations of PGD2, with CD3/CD28 stimulation (FIG. 4)
Method: As discussed above, CRTH2 is a key regulator of TH2 cytokine expression and action. We developed a CRTH2 assay to determine the effects of the SNP, rs2786098, on CRTH2 expression and action. The CRTH2 assay was developed using the following protocol. PBMCs were thawed and placed into 10 ml of RPMI+20% FBS in 15 ml conical tubes. Tubes were closed tightly, and placed on a rocker in the incubator overnight. Viable cell counts were obtained the following day. CD3+ cells were isolated from the rested PBMCs using Human T-Expander CD3/CD28 Dynabeads. These magnetic beads were used to purify CD3+/CD28+ T cells from the PBMC mixture, and then left in the cell culture to provide stimulation and co-stimulation to induce expansion of the T cells. Purified T cells were cultured with the beads in the presence of IL-2, IL-4, anti-IFNγ, and anti-IL-12. IL-2 provides a proliferative stimulus, while IL-4, anti-IFNγ, and anti-IL-12 provide TH2 skewing conditions. Cells were cultured, and culture volume was increased as required, for 10 days, at which point, they were stimulated at 500,000 cells per well with the indicated stimuli for 8 hours. Cell pellets were harvested and RNA was extracted. Gene expression was determined by qPCR. […]

## CCCCC[C@H](O)/C=C/[C@H]1C(=O)C[C@H](O)[C@@H]1C/C=C\CCCC(=O)O [PGD2, Prostaglandin D2]
  IL-13 production on stimulation: additional IL-13 was produced
